Converted amounts (≈) assume the structure as drawn. Where two headings read alike, the source gives them in different places.
Assays:
[1] = system: Stapylococcus aureus; experiment: mouse protection, experimentally-induced infection; format: in vivo; settings: mice infected with Stapylococcus aureus, two doses
[2] = system: vancomycin-susceptible enterococci; experiment: broth micro-dilution, mean geometric MIC; format: cell-based, Enterococcus faecium and Enterococcus faecalis; settings: for mean geometric MIC, Vancomycin Sensitive Strains: enterococci, 24-hour incubation
[3] = system: Leuconostoc pseudomesenteroides; experiment: agar dilution MIC, lactic acid bacteria; format: cell-based
[4] = system: Staphylococcus aureus S13E; format: cell-based
Method: (§1) The MIC's were determined using a standard broth micro-dilution assay.

[5] = system: Staphylococcus aureus SA1199B; format: cell-based
Method: as §1

[6] = system: Leuconostoc citreum; experiment: agar dilution MIC, lactic acid bacteria; format: cell-based
[7] = system: vancomycin-resistant enterococci; experiment: broth micro-dilution, mean geometric MIC; format: cell-based, Enterococcus faecium and Enterococcus faecalis; settings: for mean geometric MIC, Vancomycin Resistant Strains: enterococci, 24-hour incubation
[8] = system: Lactobacillus confusus; experiment: agar dilution MIC, lactic acid bacteria; format: cell-based
[9] = system: Pediococcus pentosaceus; experiment: agar dilution MIC, lactic acid bacteria; format: cell-based
[10] = system: Staphylococcus haemolyticus 105; experiment: broth micro-dilution MIC; format: cell-based
Method: (§2) The formula I compounds have in vitro and in vivo activity against Gram-positive pathogenic bacteria. The MIC's were determined using a standard broth micro-dilution assay.

[11] = system: Enterococcus gallinarum 245; experiment: broth micro-dilution MIC; format: cell-based
Method: as §2

[12] = system: Staphylococcus haemolyticus 415; experiment: broth micro-dilution MIC; format: cell-based
Method: as §2

[13] = system: Entercoccus faecium 2041; experiment: broth micro-dilution MIC; format: cell-based
Method: as §2

[14] = system: Escherichia coli EC14; experiment: broth micro-dilution MIC; format: cell-based
Method: as §2

[15] = system: Entercoccus faecium 180; experiment: broth micro-dilution MIC; format: cell-based
Method: as §2

[16] = system: Streptococcus pneumoniae P1; experiment: broth micro-dilution MIC; format: cell-based
Method: as §2

[17] = system: Streptococcus pyogenes; experiment: mouse protection, experimentally-induced infection; format: in vivo; settings: mice infected with Streptococcus pyogenes, two doses
[18] = system: Streptococcus pneumoniae; experiment: mouse protection, experimentally-induced infection; format: in vivo; settings: mice infected with Streptococcus pneumoniae, two doses
[19] = system: Leuconostoc mesenteroides; experiment: agar dilution MIC, lactic acid bacteria; format: cell-based
[20] = system: Leuconostoc lactis; experiment: agar dilution MIC, lactic acid bacteria; format: cell-based
[21] = system: Staphylococcus aureus X778; experiment: broth micro-dilution MIC; format: cell-based
Method: as §1

[22] = system: Staphylococcus aureus 446; experiment: broth micro-dilution MIC; format: cell-based
Method: as §1

[23] = system: Entercoccus faecium 180-1; experiment: broth micro-dilution MIC; format: cell-based
Method: as §1

[24] = system: Staphylococcus aureus SA1199A; experiment: broth micro-dilution MIC; format: cell-based
Method: as §1

[25] = system: Staphylococcus aureus 447; experiment: broth micro-dilution MIC; format: cell-based
Method: as §1

[26] = system: Streptococcus pyogenes C203; experiment: broth micro-dilution MIC; format: cell-based
Method: as §1

[27] = system: Staphylococcus aureus SA1199; experiment: broth micro-dilution MIC; format: cell-based
Method: as §1

[28] = system: Entercoccus faecium 276; experiment: broth micro-dilution MIC; format: cell-based
Method: as §1

[29] = system: Staphylococcus aureus 491; experiment: broth micro-dilution MIC; format: cell-based
Method: as §1

[30] = system: Pediococcus acidilacti; experiment: agar dilution MIC, lactic acid bacteria; format: cell-based
[31] = system: Staphylococcus epidermidis 270; experiment: broth micro-dilution MIC; format: cell-based
Method: as §2

[32] = system: Staphylococcus aureus X400; experiment: broth micro-dilution MIC; format: cell-based
Method: as §1

[33] = system: Staphylococcus aureus 489; experiment: broth micro-dilution MIC; format: cell-based
Method: as §1

[34] = system: Haemophilus influenzae RD; experiment: broth micro-dilution MIC; format: cell-based; settings: Haemophilus influenzae
Method: as §2

[35] = Lactobacillus confusus, brain-heart infusion agar
[36] = Pediococcus pentosaceus (mean of 2), brain-heart infusion agar
[37] = Leuconostoc mesenteroides (mean of 4), brain-heart infusion agar
[38] = Leuconostoc lactis (mean of 2), brain-heart infusion agar
[39] = Pediococcus acidilacti (mean of 10), brain-heart infusion agar

| SMILES | ED50 [1] [mg/kg/2] | mean geometric MIC, Vancomycin Sensitive Strains [2] [µg/mL] | MIC ([3]; brain-heart infusion agar) [µg/mL] | MIC [4] [µg/mL] | MIC [5] [µg/mL] | MIC ([6]; brain-heart infusion agar) [µg/mL] | mean geometric MIC, Vancomycin Resistant Strains [7] [µg/mL] | MIC [8, 35] [µg/mL] | MIC [9, 36] [µg/mL] | MIC [10] [µg/mL] | MIC ([11]; Enterococcus gallinarum 245) [µg/mL] | MIC [12] [µg/mL] | MIC ([13]; Entercoccus faecium 2041) [µg/mL] | MIC [14] [µg/mL] | MIC ([15]; Entercoccus faecium 180) [µg/mL] | MIC [16] [µg/mL] | ED50 [17] [mg/kg/2] | ED50 [18] [mg/kg/2] | MIC [19, 37] [µg/mL] | MIC [24] [µg/mL] | also measured |
| --- | --- | --- | --- | --- | --- | --- | --- | --- | --- | --- | --- | --- | --- | --- | --- | --- | --- | --- | --- | --- | --- |
| CNC(CC(C)C)C(=O)NC1C(=O)NC(CC(N)=O)C(=O)NC2C(=O)NC3C(=O)NC(C(=O)NC(C(=O)O)c4cc(O)cc(O)c4-c4cc3ccc4O)C(OC3CC(C)(N)C(O)C(C)O3)c3ccc(c(Cl)c3)Oc3cc2cc(c3OC2OC(CO)C(O)C(O)C2OC2CC(C)(NCc3ccc(OCc4ccccc4)cc3)C(O)C(C)O2)Oc2ccc(cc2Cl)C1O (centres unmarked) [Compound 5] | 0.13 | 0.072 | 16 (≈ 8.95 µM) | 1 (≈ 0.559 µM) | ≤ 0.06 | 64 (≈ 35.8 µM) | 0.50 | 16 (≈ 8.95 µM) | 8.0 (≈ 4.47 µM) | 2 (≈ 1.12 µM) | ≤ 0.06 | 1 (≈ 0.559 µM) | ≤ 0.06 | > 64 | ≤ 0.06 | ≤ 0.06 | 0.039 | 0.036 | 8 (≈ 4.47 µM) | ≤ 0.06 | MIC [20, 38]: 8.0 µg/mL (≈ 4.47 µM); MIC [21]: 0.5 µg/mL (≈ 0.28 µM); MIC [22]: 1 µg/mL (≈ 0.559 µM); MIC [23]: ≤ 0.06 µg/mL; MIC [25]: 0.5 µg/mL (≈ 0.28 µM); MIC [26]: ≤ 0.06 µg/mL; MIC [27]: 1 µg/mL (≈ 0.559 µM); MIC [28]: ≤ 0.06 µg/mL; MIC [29]: 0.5 µg/mL (≈ 0.28 µM); MIC [30, 39]: 2.8 µg/mL (≈ 1.57 µM) |
| CNC(CC(C)C)C(=O)NC1C(=O)NC(CC(N)=O)C(=O)NC2C(=O)NC3C(=O)NC(C(=O)NC(C(=O)O)c4cc(O)cc(O)c4-c4cc3ccc4O)C(OC3CC(C)(N)C(O)C(C)O3)c3ccc(c(Cl)c3)Oc3cc2cc(c3OC2OC(CO)C(O)C(O)C2OC2CC(C)(NCc3ccc(Oc4ccccc4)cc3)C(O)C(C)O2)Oc2ccc(cc2Cl)C1O (centres unmarked) [Compound 4, p-phenoxybenzyl·A82846B] | 0.36 | 0.062 | 32 (≈ 18 µM) | ≤ 0.06 | ≤ 0.06 | 128 (≈ 72.1 µM) | 0.50 | 32 (≈ 18 µM) | 16 (≈ 9.02 µM) | 0.5 (≈ 0.282 µM) | ≤ 0.06 | 0.5 (≈ 0.282 µM) | ≤ 0.06 | > 64 | 0.125 (≈ 0.0704 µM) | ≤ 0.06 | 0.012 | 0.036 | 16 (≈ 9.02 µM) | ≤ 0.06 | MIC [31]: ≤ 0.06 µg/mL; MIC [20, 38]: 16 µg/mL (≈ 9.02 µM); MIC [21]: ≤ 0.06 µg/mL; MIC [22]: ≤ 0.06 µg/mL; MIC [23]: ≤ 0.06 µg/mL; MIC [32]: ≤ 0.06 µg/mL; MIC [25]: 0.25 µg/mL (≈ 0.141 µM); MIC [26]: ≤ 0.06 µg/mL; MIC [33]: ≤ 0.06 µg/mL; MIC [27]: ≤ 0.06 µg/mL; MIC [28]: ≤ 0.06 µg/mL; MIC [29]: ≤ 0.06 µg/mL; MIC [30, 39]: 7.5 µg/mL (≈ 4.23 µM) |
| CN[C@H](CC(C)C)C(=O)N[C@H]1C(=O)N[C@@H](CC(N)=O)C(=O)N[C@H]2C(=O)N[C@H]3C(=O)N[C@H](C(=O)N[C@H](C(=O)O)c4cc(O)cc(O)c4-c4cc3ccc4O)[C@H](O)c3ccc(c(Cl)c3)Oc3cc2cc(c3O[C@@H]2O[C@H](CO)[C@@H](O)[C@H](O)[C@H]2O[C@H]2C[C@](C)(N)[C@H](O)[C@H](C)O2)Oc2ccc(cc2Cl)[C@H]1O [vancomycin, reference compound] | 1.2 | – | – | – | – | – | – | – | – | 16 (≈ 11 µM) | – | 8 (≈ 5.52 µM) | – | > 64 | – | 0.25 (≈ 0.173 µM) | 0.8 | 1.1 | – | 0.125 (≈ 0.0863 µM) | MIC ([2]; 24 h, read-out: mean geometric MIC, Vancomycin Sensitive Strains): 3.9 µg/mL (≈ 2.69 µM); MIC [3]: > 1020 µg/mL; MIC [6]: > 1020 µg/mL; MIC ([7]; 24 h, read-out: mean geometric MIC, Vancomycin Resistant Strains): 282 µg/mL (≈ 195 µM); MIC ([8]; Weissella confusa): 1020 µg/mL (≈ 707 µM); MIC ([9]; Pediococcus pentosaceus): 1020 µg/mL (≈ 707 µM); MIC [31]: 16 µg/mL (≈ 11 µM); MIC [34]: > 64 µg/mL; MIC ([11]; Enterococcus gallinarum, GALLINARUM): 4 µg/mL (≈ 2.76 µM); MIC [13]: 2 µg/mL (≈ 1.38 µM); MIC [15]: > 64 µg/mL; MIC ([19]; Leuconostoc mesenteroides): 1020 µg/mL (≈ 707 µM); MIC ([20]; Leuconostoc lactis): 1020 µg/mL (≈ 707 µM); MIC [33]: 0.125 µg/mL (≈ 0.0863 µM); MIC ([30]; Pediococcus): 891 µg/mL (≈ 615 µM) |

Source: patent US5840684A, “Glycopeptide antibiotic derivatives” (Eli Lilly and Company, priority 1995, dated 1998)
